These are literature values, as cited in PubChem BioAssay AID1259409 (Chemical Carcinogenesis Research Information System (CCRIS), 2018).

SMILES strings stand for the structures. Several values for one entry are separate records, joined by “and”; a condition that tells them apart may be missing. Identical values can stand only once.

This data set concerns rodent chemically induced tumor inhibition, incidence and multiplicity. The data set is described as follows: CCRIS tumor inhibitor studies.
[1] abbreviates: Carcinogen: 7,12-DIMETHYLBENZ[A]ANTHRACENE, 57-97-6, Dose [Inhibitor]: 0, 0.2 UMOL 2/WK FOR 19 WK BEGINNING 1 WK POST CARCINOGEN DOSE (STUDY DURATION: 20 WK), Route [Inhibitor]: DERMAL, Species: MOUSE, Strain/Sex: ICR, Target Tissue: Type of Lesion: SKIN: PAPILLOMA, Dose [Carcinogen]: 50 UG ONCE, Promoter: 12-O-TETRADECANOYLPHORBOL-13-ACETATE, 16561-29-8.
Setting [2] is: Carcinogen: 7,12-DIMETHYLBENZ[A]ANTHRACENE, 57-97-6, Dose [Inhibitor]: 0, 0.2 UMOL IN 100 µL ACETONE:DMSO (9:1) 2/WK FOR 20 WK APPLIED 30 MIN PRIOR TO EACH CARCINOGEN DOSE (STUDY DURATION: 20, Route [Inhibitor]: DERMAL, Species: MOUSE, Strain/Sex: ICR/FEMALE, Target Tissue: Type of Lesion: SKIN: PAPILLOMA, Dose [Carcinogen]: 50 UG IN 100 µL ACETONE ONCE, Promoter: 12-O-TETRADECANOYLPHORBOL-13-ACETATE, 16561-29-8.

For the molecule `Cc1cc(C)c(C)c(O)c1C`, the “tumour outcome (control, treated, inhibition, significance)” value (Carcinogen: BENZO[A]PYRENE, 50-32-8, Dose [Inhibitor]: 0.03 MMOL/G OF DIET DAILY STARTING 7 D BEFORE AND CONTINUING THROUGH 3 D AFTER CARCINOGEN TREATMENT FOLLOWED BY OBSERVAT, Route [Inhibitor]: ORAL, Species: MOUSE, Strain/Sex: ICR/FEMALE, Target Tissue: Type of Lesion: FORESTOMACH: NEOPLASM, Dose [Carcinogen]: 1 MG IN 0.2 ML CORN OIL 2/WK FOR 4 WK, Promoter: NONE USED) was 97%, 88%, 9%, not significant and 94%, 89%, 5%, not significant.
Regarding `C=C(C)[C@@H]1CC=C2C(=CC[C@]3(C)[C@@H](C(CCC=C(C)C)C(=O)O)[C@H](O)C[C@@]23C)[C@@]1(C)CCC(=O)O` (stereo partly drawn), the “tumour outcome (control, treated, inhibition, significance)” value reads like this: under setting [1], 73%, 32%, 56%, not calculated; under setting [2], 73%, 33%, 55%, p<0.05.
For the molecule `NC(=O)c1cccc(N)c1`, the outcome was 0%, 7% (Carcinogen: N-NITROSOBIS(2-HYDROXYPROPYL)AMINE, 53609-64-6, Dose [Inhibitor]: 0, 300 MG/KG 30 MIN AFTER EACH CARCINOGEN DOSE (STUDY DURATION: 35 WK), Route [Inhibitor]: INTRAPERITONEAL, Species: HAMSTER, Strain/Sex: SYRIAN/MALE, Target Tissue: Type of Lesion: BILE DUCT: CHOLANGIOCARCINOMA, Dose [Carcinogen]: 500 MG/KG IN 0.9% SALINE 1/WK FOR 5 WK, Promoter: NONE USED); 0%, 7% (Carcinogen: N-NITROSOBIS(2-HYDROXYPROPYL)AMINE, 53609-64-6, Dose [Inhibitor]: 0, 300 MG/KG 30 MIN AFTER EACH CARCINOGEN DOSE (STUDY DURATION: 35 WK), Route [Inhibitor]: INTRAPERITONEAL, Species: HAMSTER, Strain/Sex: SYRIAN/MALE, Target Tissue: Type of Lesion: LIVER: HEPATOCELLULAR CARCINOMA, Dose [Carcinogen]: 500 MG/KG IN 0.9% SALINE 1/WK FOR 5 WK, Promoter: NONE USED); 0%, 7% (Carcinogen: N-NITROSOBIS(2-HYDROXYPROPYL)AMINE, 53609-64-6, Dose [Inhibitor]: 0, 300 MG/KG 30 MIN AFTER EACH CARCINOGEN DOSE (STUDY DURATION: 35 WK), Route [Inhibitor]: INTRAPERITONEAL, Species: HAMSTER, Strain/Sex: SYRIAN/MALE, Target Tissue: Type of Lesion: LUNG: ADENOMA, Dose [Carcinogen]: 500 MG/KG IN 0.9% SALINE 1/WK FOR 5 WK, Promoter: NONE USED); 0%, 5% (Carcinogen: N-NITROSOBIS(2-HYDROXYPROPYL)AMINE, 53609-64-6, Dose [Inhibitor]: 0, 600 MG/KG 30 MIN AFTER EACH CARCINOGEN DOSE (STUDY DURATION: 35 WK), Route [Inhibitor]: INTRAPERITONEAL, Species: HAMSTER, Strain/Sex: SYRIAN/MALE, Target Tissue: Type of Lesion: LIVER: HEPATOCELLULAR CARCINOMA, Dose [Carcinogen]: 500 MG/KG IN 0.9% SALINE 1/WK FOR 5 WK, Promoter: NONE USED); 0%, 5% (Carcinogen: N-NITROSOBIS(2-HYDROXYPROPYL)AMINE, 53609-64-6, Dose [Inhibitor]: 0, 600 MG/KG 30 MIN AFTER EACH CARCINOGEN DOSE (STUDY DURATION: 35 WK), Route [Inhibitor]: INTRAPERITONEAL, Species: HAMSTER, Strain/Sex: SYRIAN/MALE, Target Tissue: Type of Lesion: LUNG: ADENOMA, Dose [Carcinogen]: 500 MG/KG IN 0.9% SALINE 1/WK FOR 5 WK, Promoter: NONE USED). Moreover, the “tumour outcome (control, treated, inhibition, significance)” value runs as follows: (Carcinogen: N-NITROSOBIS(2-HYDROXYPROPYL)AMINE, 53609-64-6, Dose [Inhibitor]: 0, 300 MG/KG 30 MIN AFTER EACH CARCINOGEN DOSE (STUDY DURATION: 35 WK), Route [Inhibitor]: INTRAPERITONEAL, Species: HAMSTER, Strain/Sex: SYRIAN/MALE, Target Tissue: Type of Lesion: LUNG: ADENOCARCINOMA, Dose [Carcinogen]: 500 MG/KG IN 0.9% SALINE 1/WK FOR 5 WK, Promoter: NONE USED) 8%, 0%, 100%, not calculated; (Carcinogen: N-NITROSOBIS(2-HYDROXYPROPYL)AMINE, 53609-64-6, Dose [Inhibitor]: 0, 300 MG/KG 30 MIN AFTER EACH CARCINOGEN DOSE (STUDY DURATION: 35 WK), Route [Inhibitor]: INTRAPERITONEAL, Species: HAMSTER, Strain/Sex: SYRIAN/MALE, Target Tissue: Type of Lesion: PANCREAS: CARCINOMA, Dose [Carcinogen]: 500 MG/KG IN 0.9% SALINE 1/WK FOR 5 WK, Promoter: NONE USED) 39%, 40%, -3%, not calculated; (Carcinogen: N-NITROSOBIS(2-HYDROXYPROPYL)AMINE, 53609-64-6, Dose [Inhibitor]: 0, 600 MG/KG 30 MIN AFTER EACH CARCINOGEN DOSE (STUDY DURATION: 35 WK), Route [Inhibitor]: INTRAPERITONEAL, Species: HAMSTER, Strain/Sex: SYRIAN/MALE, Target Tissue: Type of Lesion: LUNG: ADENOCARCINOMA, Dose [Carcinogen]: 500 MG/KG IN 0.9% SALINE 1/WK FOR 5 WK, Promoter: NONE USED) 8%, 0%, 100%, not calculated; (Carcinogen: N-NITROSOBIS(2-HYDROXYPROPYL)AMINE, 53609-64-6, Dose [Inhibitor]: 0, 600 MG/KG 30 MIN AFTER EACH CARCINOGEN DOSE (STUDY DURATION: 35 WK), Route [Inhibitor]: INTRAPERITONEAL, Species: HAMSTER, Strain/Sex: SYRIAN/MALE, Target Tissue: Type of Lesion: PANCREAS: CARCINOMA, Dose [Carcinogen]: 500 MG/KG IN 0.9% SALINE 1/WK FOR 5 WK, Promoter: NONE USED) 39%, 25%, 36%, not calculated.
As to `CCNc1nc(Cl)nc(NC(C)C)n1`, the outcome runs as follows: (Carcinogen: N-NITROSOBIS(2-HYDROXYPROPYL)AMINE, 53609-64-6, Dose [Inhibitor]: 0, 400 PPM IN DIET FOR 25 WK BEGINNING 9 WK POST CARCINOGEN TREATMENT (STUDY DURATION: 35 WK), Route [Inhibitor]: ORAL, Species: RAT, Strain/Sex: F344/FEMALE, Target Tissue: Type of Lesion: THYROID GLAND: ADENOMA, Dose [Carcinogen]: 2000 MG/KG 1 WK POST BILATERAL OVARIECTOMY, Promoter: SULFADIMETHOXINE, 122-11-2) 0/12 (0%), 0/15 (0%), 0%, not significant; (Carcinogen: N-NITROSOBIS(2-HYDROXYPROPYL)AMINE, 53609-64-6, Dose [Inhibitor]: 0, 400 PPM IN DIET FOR 27 WK BEGINNING 9 WK POST CARCINOGEN TREATMENT (STUDY DURATION: 37 WK), Route [Inhibitor]: ORAL, Species: RAT, Strain/Sex: F344/FEMALE, Target Tissue: Type of Lesion: THYROID GLAND: ADENOMA, Dose [Carcinogen]: 2000 MG/KG BW 1 WK POST BILATERAL OVARIECTOMY, Promoter: SULFADIMETHOXINE, 122-11-2) 0/12 (0%), 0/15 (0%), 0%, not significant. In addition, the “tumour outcome (control, treated, inhibition, significance)” value is listed as 10/12 (83%), 9/15 (60%), 28%, not significant (Carcinogen: N-NITROSOBIS(2-HYDROXYPROPYL)AMINE, 53609-64-6, Dose [Inhibitor]: 0, 400 PPM IN DIET FOR 25 WK BEGINNING 9 WK POST CARCINOGEN TREATMENT (STUDY DURATION: 35 WK), Route [Inhibitor]: ORAL, Species: RAT, Strain/Sex: F344/FEMALE, Target Tissue: Type of Lesion: THYROID GLAND: CARCINOMA, Dose [Carcinogen]: 2000 MG/KG 1 WK POST BILATERAL OVARIECTOMY, Promoter: SULFADIMETHOXINE, 122-11-2) and 10/12 (83%), 8/15 (53%), 36%, not significant (Carcinogen: N-NITROSOBIS(2-HYDROXYPROPYL)AMINE, 53609-64-6, Dose [Inhibitor]: 0, 400 PPM IN DIET FOR 27 WK BEGINNING 9 WK POST CARCINOGEN TREATMENT (STUDY DURATION: 37 WK), Route [Inhibitor]: ORAL, Species: RAT, Strain/Sex: F344/FEMALE, Target Tissue: Type of Lesion: THYROID GLAND: CARCINOMA, Dose [Carcinogen]: 2000 MG/KG BW 1 WK POST BILATERAL OVARIECTOMY, Promoter: SULFADIMETHOXINE, 122-11-2).
As for `C=C(CC[C@@H](C(=O)O)[C@H]1[C@H](O)C[C@@]2(C)C3=C(CC[C@]12C)[C@@]1(C)CC[C@H](OC(C)=O)C(C)(C)[C@@H]1CC3)C(C)C`, the “tumour outcome (control, treated, inhibition, significance)” value runs as follows: under setting [1], 73%, 25%, 66%, not calculated; under setting [2], 73%, 27%, 63%, p<0.01.
